# Where “and” joins values, the source holds several entries; their conditions need not be identical. Identical values can stand only once. Inconclusive results and toxic doses are left out.
# Test system: L1210 leukemia ip in BDF1 mice, survival T/C
# Experiment: NCI In Vivo Anticancer Drug Screen. Data for tumor model L1210 Leukemia (intraperitoneal) in B6D2F1 (BDF1) mice
# Conditions: endpoint: mean survival time, higher = longer survival
# Outline: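 Tumor was transplanted into mice, which were then dosed with test compound or vehicle alone. Survival was recorded for each group, and the treated figure was expressed relative to the control figure.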
# [1] = dose: 10.0 mg/kg/injection, schedule: Q01DX009 (ip), vehicle: saline
# [2] = dose: 50.0 mg/kg/injection, schedule: Q01DX001 (ip), vehicle: saline
# [3] = dose: 100.0 mg/kg/injection, schedule: Q01DX001 (ip), vehicle: saline
# [4] = dose: 100.0 mg/kg/injection, schedule: Q04DX003 (ip), vehicle: saline
# [5] = dose: 200.0 mg/kg/injection, schedule: Q01DX001 (ip), vehicle: saline
# [6] = dose: 200.0 mg/kg/injection, schedule: Q04DX003 (ip), vehicle: saline
# [7] = dose: 400.0 mg/kg/injection, schedule: Q01DX001 (ip), vehicle: saline
# [8] = dose: 100.0 mg/kg/injection, schedule: Q01DX009 (ip), vehicle: other
compound,measurement,setting,value
COc1cc2cc3c4cc(OC)c(OC)cc4cc[n+]3cc2cc1OC,T/C,[1],92 % of control
same,T/C,"dose: 20.0 mg/kg/injection, schedule: Q01DX009 (ip), vehicle: saline",116 % of control
same,T/C,"dose: 40.0 mg/kg/injection, schedule: Q01DX009 (ip), vehicle: saline",118 % of control
same,T/C,"dose: 80.0 mg/kg/injection, schedule: Q01DX009 (ip), vehicle: saline",110 % of control
same,T/C,"dose: 160.0 mg/kg/injection, schedule: Q01DX009 (ip), vehicle: saline",113 % of control
same,T/C,"dose: 320.0 mg/kg/injection, schedule: Q01DX009 (ip), vehicle: saline",93 % of control
CCc1ccc(NC(=O)Nc2cccc(Cl)c2)cc1,T/C,"dose: 100.0 mg/kg/injection, schedule: Q01DX009 (ip), vehicle: Klucel (hydroxypropylcellulose) (HPC)",92 % of control
same,T/C,"dose: 100.0 mg/kg/injection, schedule: Q04DX003 (ip), vehicle: Klucel (hydroxypropylcellulose) (HPC)",102 % of control
same,T/C,"dose: 200.0 mg/kg/injection, schedule: Q01DX009 (ip), vehicle: Klucel (hydroxypropylcellulose) (HPC)",89 % of control
same,T/C,"dose: 200.0 mg/kg/injection, schedule: Q04DX003 (ip), vehicle: Klucel (hydroxypropylcellulose) (HPC)",102 % of control
same,T/C,"dose: 400.0 mg/kg/injection, schedule: Q01DX009 (ip), vehicle: Klucel (hydroxypropylcellulose) (HPC)",99 % of control
same,T/C,"dose: 400.0 mg/kg/injection, schedule: Q04DX003 (ip), vehicle: Klucel (hydroxypropylcellulose) (HPC)",98 % of control
O=C1Cc2ccccc2O1,T/C,"dose: 50.0 mg/kg/injection, schedule: Q01DX009 (ip), vehicle: saline with Tween-80",101 % of control
same,T/C,"dose: 100.0 mg/kg/injection, schedule: Q01DX009 (ip), vehicle: saline with Tween-80",96 % of control
CC(C)=NC(=O)NO.[Cl][Ni][Cl],T/C,"dose: 15.0 mg/kg/injection, schedule: Q01DX001 (ip), vehicle: saline",102 % of control
same,T/C,"dose: 30.0 mg/kg/injection, schedule: Q01DX001 (ip), vehicle: saline",110 % of control
same,T/C,"dose: 60.0 mg/kg/injection, schedule: Q01DX001 (ip), vehicle: saline",111 % of control
same,T/C,"dose: 75.0 mg/kg/injection, schedule: Q01DX001 (ip), vehicle: saline",116 % of control
NNC(=O)CC(=O)NN,T/C,[2],97 % of control
same,T/C,[3],106 % of control
same,T/C,[4],110 % of control
same,T/C,[5],97 % of control
same,T/C,[6],111 % of control
same,T/C,[7],97 % of control
O=C1CC2(CCN(Cc3ccccc3)CC2)C(=O)N1N1CCCC1,T/C,"dose: 100.0 mg/kg/injection, schedule: Q01DX001 (ip), vehicle: Klucel (hydroxypropylcellulose) (HPC)",91 % of control
same,T/C,"dose: 200.0 mg/kg/injection, schedule: Q01DX001 (ip), vehicle: Klucel (hydroxypropylcellulose) (HPC)",88 % of control
same,T/C,"dose: 400.0 mg/kg/injection, schedule: Q01DX001 (ip), vehicle: Klucel (hydroxypropylcellulose) (HPC)",89 % of control
CNc1cc(Cl)ncn1,T/C,[2],90 % of control
same,T/C,[3],93 % of control
same,T/C,[5],95 % of control
COc1cc2c3c(c1)-c1nc4ccccc4cc1CN3CCC2,T/C,[8],102 % of control
same,T/C,"dose: 100.0 mg/kg/injection, schedule: Q04DX003 (ip), vehicle: other",97 % of control
same,T/C,"dose: 200.0 mg/kg/injection, schedule: Q01DX009 (ip), vehicle: other",102 % of control
same,T/C,"dose: 200.0 mg/kg/injection, schedule: Q04DX003 (ip), vehicle: other",100 % of control
same,T/C,"dose: 400.0 mg/kg/injection, schedule: Q01DX009 (ip), vehicle: other",114 % of control
same,T/C,"dose: 400.0 mg/kg/injection, schedule: Q04DX003 (ip), vehicle: other",97 % of control
CC(=O)N1CCCC(=O)CCCCCCC1=O,T/C,"dose: 50.0 mg/kg/injection, schedule: Q04DX003 (ip), vehicle: saline",95 % of control
same,T/C,[4],103 % of control
same,T/C,[6],88 % of control
CC(=O)Nc1cc(F)c([N+](=O)[O-])cc1[N+](=O)[O-],T/C,"dose: 0.62 mg/kg/injection, schedule: Q01DX009 (ip), vehicle: saline",96 % of control
same,T/C,"dose: 1.25 mg/kg/injection, schedule: Q01DX009 (ip), vehicle: saline",102 % of control
same,T/C,"dose: 2.5 mg/kg/injection, schedule: Q01DX009 (ip), vehicle: saline",93 % of control
same,T/C,"dose: 2.5 mg/kg/injection, schedule: Q01DX015 (ip), vehicle: carboxymethylcellulose (CMC)",95 % of control
same,T/C,"dose: 3.13 mg/kg/injection, schedule: Q04DX003 (ip), vehicle: saline with Tween-80",106 % of control
same,T/C,"dose: 5.0 mg/kg/injection, schedule: Q01DX009 (ip), vehicle: saline",104 % of control
same,T/C,"dose: 5.0 mg/kg/injection, schedule: Q01DX015 (ip), vehicle: carboxymethylcellulose (CMC)",95 % of control
same,T/C,"dose: 6.25 mg/kg/injection, schedule: Q04DX003 (ip), vehicle: saline with Tween-80",90 % of control
same,T/C,"dose: 10.0 mg/kg/injection, schedule: Q01DX009 (ip), vehicle: saline with Tween-80",92 % of control
same,T/C,[1],96 % of control
same,T/C,"dose: 10.0 mg/kg/injection, schedule: Q01DX015 (ip), vehicle: carboxymethylcellulose (CMC)",91 % of control
same,T/C,"dose: 12.5 mg/kg/injection, schedule: Q04DX003 (ip), vehicle: saline with Tween-80",94 % of control
same,T/C,"dose: 12.5 mg/kg/injection, schedule: Q04DX003 (ip), vehicle: saline",86 % of control
same,T/C,"dose: 20.0 mg/kg/injection, schedule: Q01DX009 (ip), vehicle: saline with Tween-80",103 % of control
same,T/C,"dose: 25.0 mg/kg/injection, schedule: Q04DX003 (ip), vehicle: saline with Tween-80",105 % of control
same,T/C,[2],104 % of control and 106 % of control
same,T/C,[3],95 % of control and 91 % of control
same,T/C,[5],112 % of control
same,T/C,[7],106 % of control
O=C(Nc1ccc(NC(=O)Nc2cccc(C3=NCCCN3)c2)cc1)Nc1ccc(C2=NCCCN2)cc1,T/C,"dose: 1.25 mg/kg/injection, schedule: Q01DX Z (ip), vehicle: carboxymethylcellulose (CMC)",102 % of control
same,T/C,"dose: 2.5 mg/kg/injection, schedule: Q01DX Z (ip), vehicle: carboxymethylcellulose (CMC)",109 % of control
same,T/C,"dose: 5.0 mg/kg/injection, schedule: Q01DX Z (ip), vehicle: carboxymethylcellulose (CMC)",113 % of control
same,T/C,"dose: 8.5 mg/kg/injection, schedule: Q01DX Z (ip), vehicle: carboxymethylcellulose (CMC)",170 % of control
same,T/C,"dose: 10.0 mg/kg/injection, schedule: Q01DX Z (ip), vehicle: carboxymethylcellulose (CMC)",167 % of control
same,T/C,"dose: 15.0 mg/kg/injection, schedule: Q01DX Z (ip), vehicle: carboxymethylcellulose (CMC)",157 % of control
same,T/C,"dose: 17.0 mg/kg/injection, schedule: Q01DX Z (ip), vehicle: carboxymethylcellulose (CMC)",151 % of control
same,T/C,"dose: 50.0 mg/kg/injection, schedule: Q01DX Z (oral), vehicle: carboxymethylcellulose (CMC)",102 % of control
same,T/C,"dose: 100.0 mg/kg/injection, schedule: Q01DX Z (oral), vehicle: carboxymethylcellulose (CMC)",107 % of control
same,T/C,"dose: 200.0 mg/kg/injection, schedule: Q01DX Z (oral), vehicle: carboxymethylcellulose (CMC)",104 % of control
same,T/C,"dose: 400.0 mg/kg/injection, schedule: Q01DX Z (oral), vehicle: carboxymethylcellulose (CMC)",102 % of control
COC(=O)C(CCC(=O)CN1C(=O)c2ccccc2C1=O)N1C(=O)c2ccccc2C1=O (stereo not given),T/C,"dose: 100.0 mg/kg/injection, schedule: Q04DX003 (ip), vehicle: saline with Tween-80",101 % of control
same,T/C,"dose: 200.0 mg/kg/injection, schedule: Q04DX003 (ip), vehicle: saline with Tween-80",99 % of control
same,T/C,"dose: 400.0 mg/kg/injection, schedule: Q04DX003 (ip), vehicle: saline with Tween-80",87 % of control
C=C(C)CNC(=O)Oc1cccc(NC(=O)OC)c1,T/C,"dose: 100.0 mg/kg/injection, schedule: Q01DX001 (ip), vehicle: saline with Tween-80",97 % of control
same,T/C,"dose: 200.0 mg/kg/injection, schedule: Q01DX001 (ip), vehicle: saline with Tween-80",95 % of control
same,T/C,"dose: 400.0 mg/kg/injection, schedule: Q01DX001 (ip), vehicle: saline with Tween-80",92 % of control
O=C(NCc1ccccc1Cl)NC1CCCCC1,T/C,"dose: 100.0 mg/kg/injection, schedule: Q04DX002 (ip), vehicle: Klucel (hydroxypropylcellulose) (HPC)",87 % of control
same,T/C,"dose: 200.0 mg/kg/injection, schedule: Q04DX002 (ip), vehicle: Klucel (hydroxypropylcellulose) (HPC)",102 % of control
same,T/C,"dose: 400.0 mg/kg/injection, schedule: Q04DX002 (ip), vehicle: Klucel (hydroxypropylcellulose) (HPC)",105 % of control
C=COC(=O)NC(CCSC)C(=O)O (stereo not given),T/C,[2],101 % of control
same,T/C,[3],98 % of control
CCCCCC(=O)C#Cc1ccccc1,T/C,"dose: 6.25 mg/kg/injection, schedule: Q01DX009 (ip), vehicle: other",90 % of control
same,T/C,"dose: 12.5 mg/kg/injection, schedule: Q01DX009 (ip), vehicle: other",95 % of control
same,T/C,"dose: 25.0 mg/kg/injection, schedule: Q01DX009 (ip), vehicle: other",94 % of control and 96 % of control
same,T/C,"dose: 50.0 mg/kg/injection, schedule: Q01DX009 (ip), vehicle: other",91 % of control
same,T/C,[8],93 % of control and 86 % of control

# Source: PubChem BioAssay AID248 (DTP/NCI, 2004)
